Data from patent US9084424B2, “N-benzyl heterocyclic carboxamides” (BAYER INTELLECTUAL PROPERTY GMBH, priority 2010, dated 2015).

Assays:
[1] = log P by HPLC on reversed-phase column (EEC Directive 79/831 Annex V.A8); type: physicochemical; conditions: 0.1% aqueous formic acid and acetonitrile, linear gradient 10% to 90% acetonitrile
Method in brief: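 Retention times were converted to log P by linear interpolation between two successive unbranched alkan-2-ones (3 to 16 carbon atoms) of known log P used for calibration. Elution ran at 40° C with a linear gradient from 10% to 90% acetonitrile against 0.1% aqueous formic acid.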

Sphaerotheca fuliginea = test: In vivo preventive test on Sphaerotheca fuliginea (cucumber); conditions: preventive spray, 500 ppm of active ingredient, evaluated 7 days after inoculation
Description: In Vivo Preventive Test on Sphaerotheca fuliginea (Cucumber)
(§1) Solvent: 49 parts by weight of N,N-dimethylformamide
(§2) Emulsifier: 1 part by weight of alkylarylpolyglycolether
(§3) To produce a suitable preparation of active compound, 1 part by weight of active compound is mixed with the stated amounts of solvent and emulsifier, and the concentrate is diluted with water to the desired concentration.
To test for preventive activity, young plants are sprayed with the preparation of active compound at the stated rate of application. After the spray coating has dried on, the plants are inoculated with an aqueous spore suspension of Sphaerotheca fuliginea. The plants are then placed in a greenhouse at approximately 23° C. and a relative atmospheric humidity of approximately 70%.
(§4) The test is evaluated 7 days after the inoculation. 0% means an efficacy which corresponds to that of the untreated control, while an efficacy of 100% means that no disease is observed.

Pyrenophora teres = test: In vivo preventive test on Pyrenophora teres (barley); conditions: preventive spray, 500 ppm of active ingredient, evaluated 7-9 days after inoculation
Method in brief: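 Young barley plants were sprayed with compound formulated in N,N-dimethylacetamide/emulsifier and diluted with water, then inoculated with P. teres spores one day later. After 48 h at 22° C., 100% humidity, plants stood in a greenhouse (~20° C., ~80% humidity); efficacy versus untreated control was scored 7-9 days post-inoculation.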

Leptosphaeria nodorum = test: In vivo preventive test on Leptosphaeria nodorum (wheat); conditions: preventive spray, 500 ppm of active ingredient, evaluated 7-9 days after inoculation
Description: In Vivo Preventive Test on Leptosphaeria nodorum (Wheat)
(§5) Solvent: 49 parts by weight of N,N-dimethylacetamide
(§6) Emulsifier: 1 part by weight of alkylaryl polyglycol ether
as §3
To test for preventive activity, young plants are sprayed with a preparation of active compound at the stated rate of application. One day after this treatment, the plants are inoculated with an aqueous spore suspension of Leptosphaeria nodorum. The plants remain for 48 hours in an incubation cabinet at 22° C. and a relative atmospheric humidity of 100%. Then the plants are placed in a greenhouse at a temperature of approximately 22° C. and a relative atmospheric humidity of approximately 90%.
The test is evaluated 7-9 days after the inoculation. 0% means an efficacy which corresponds to that of the untreated control, while an efficacy of 100% means that no disease is observed.
Under these conditions, good (at least 70%) to excellent protection (at least 95%) is observed at a dose of 500 ppm of active ingredient with the following compounds from table D: […]

Alternaria solani = test: In vivo preventive test on Alternaria solani (tomato); conditions: preventive spray, 500 ppm of active ingredient, evaluated 7 days after inoculation
Description: In Vivo Preventive Test on Alternaria Solani (Tomato)
as §1, §2, §3
To test for preventive activity, young plants are sprayed with the preparation of active compound at the stated rate of application. One day after this treatment, the plants are inoculated with an aqueous spore suspension of Alternaria solani. The plants remain for one day in an incubation cabinet at approximately 22° C. and a relative atmospheric humidity of 100%. Then the plants are placed in an incubation cabinet at approximately 20° C. and a relative atmospheric humidity of 96%.
The test is evaluated 7 days after the inoculation. 0% means an efficacy which corresponds to that of the untreated control while an efficacy of 100% means that no disease is observed.

Puccinia triticina = test: In vivo preventive test on Puccinia triticina (wheat); conditions: preventive spray, 500 ppm of active ingredient, evaluated 8 days after inoculation
Description: In Vivo Preventive Test on Puccinia triticina (Wheat)
as §5, §6
(§7) To produce a suitable preparation of active compound, 1 part by weight of active compound or active compound combination is mixed with the stated amounts of solvent and emulsifier, and the concentrate is diluted with water to the desired concentration.
(§8) To test for preventive activity, young plants are sprayed with the preparation of active compound or active compound combination at the stated rate of application.
After the spray coating has been dried, the plants are sprayed with a spore suspension of Puccinia triticina. The plants remain for 48 hours in an incubation cabinet at approximately 20° C. and a relative atmospheric humidity of approximately 100%.
The plants are placed in the greenhouse at a temperature of approximately 20° C. and a relative atmospheric humidity of approximately 80%.
The test is evaluated 8 days after the inoculation. 0% means an efficacy which corresponds to that of the untreated control, while an efficacy of 100% means that no disease is observed.

Septoria tritici = test: In vivo preventive test on Septoria tritici (wheat); conditions: preventive spray, 500 ppm of active ingredient, evaluated 21 days after inoculation
Description: In Vivo Preventive Test on Septoria tritici (Wheat)
as §5, §6, §7, §8
After the spray coating has been dried, the plants are sprayed with a spore suspension of Septoria tritici. The plants remain for 48 hours in an incubation cabinet at approximately 20° C. and a relative atmospheric humidity of approximately 100% and afterwards for 60 hours at approximately 15° C. in a translucent incubation cabinet at a relative atmospheric humidity of approximately 100%.
The plants are placed in the greenhouse at a temperature of approximately 15° C. and a relative atmospheric humidity of approximately 80%.
The test is evaluated 21 days after the inoculation. 0% means an efficacy which corresponds to that of the untreated control, while an efficacy of 100% means that no disease is observed.

[2] = test system: Blumeria graminis f.sp. hordei; test: In vivo preventive test on Blumeria graminis (barley); conditions: preventive spray, 500 ppm of active ingredient, evaluated 7 days after inoculation
Description: In Vivo Preventive Test on Blumeria graminis (Barley)
as §5, §6, §7, §8
After the spray coating has been dried, the plants are dusted with spores of Blumeria graminis f.sp. hordei.
The plants are placed in the greenhouse at a temperature of approximately 18° C. and a relative atmospheric humidity of approximately 80% to promote the development of mildew pustules.
as §4

[3] = HPLC, reversed-phase C 18, 40° C.
[4] = HPLC on reversed-phase column (C 18), 40° C.

Row | SMILES | logP [1, 3] | Efficacy (Sphaerotheca fuliginea) | Efficacy (Pyrenophora teres) | Efficacy (Leptosphaeria nodorum) | logP [1, 4] | Efficacy (Alternaria solani) | Efficacy (Puccinia triticina) | Efficacy (Septoria tritici) | Efficacy [2]
1 | CON(C(=O)c1c(C(F)F)nn(C)c1F)C(C)c1ccc(Cl)cc1Cl (centres unmarked) [Example 45] | 3.65 | 100% | 100% | 95% |  |  |  |  | 
2 | CN(Cc1ncc(Cl)cc1Cl)C(=O)c1c(C(F)F)nn(C)c1Cl [Example 180] |  |  | 100% |  | 2.73 | 80% | 80% |  | 
3 | CC(c1cc(Cl)cc(Cl)c1)N(C)C(=S)c1c(C(F)F)nn(C)c1F (centres unmarked) [Example 118] |  | 95% | 100% | 70% | 4.24 | 100% |  |  | 
4 | Cn1nc(C(F)F)c(C(=O)N(Cc2ccc(Cl)cc2Cl)C2CCC2)c1F [Example 31] | 4.19 |  | 100% | 80% |  |  |  |  | 
5 | CON(Cc1ccccc1C(C)C)C(=O)c1c(C(F)F)nn(C)c1F [Example 76] | 3.37 | 93% |  | 89% |  | 94% |  |  | 
6 | Cn1nc(C(F)F)c(C(=O)NCc2ccccc2SC(F)(F)F)c1Cl [Example 106] |  |  | 90% |  | 3.29 |  | 80% |  | 
7 | Cn1nc(C(F)F)c(C(=O)N(Cc2ccccc2[Si](C)(C)C)C2CCC2)c1F [Example 98] | 4.61 | 96% |  |  |  | 70% | 95% |  | 
8 | CC(NC(=S)c1c(C(F)F)nn(C)c1Cl)c1ccc(Cl)cc1Cl (centres unmarked) [Example 44] | 3.99 |  | 100% | 89% |  | 100% |  |  | 
9 | CCN(Cc1ccccc1C(C)C)C(=O)c1c(C(F)F)nn(C)c1F [Example 68] | 3.42 | 100% | 100% |  |  | 80% | 70% | 100% | 100%
10 | CC(c1cc(Cl)ccc1Cl)N(C)C(=O)c1c(C(F)F)nn(C)c1F (centres unmarked) [Example 56] | 3.15 | 95% | 100% | 70% |  | 100% |  |  | 
11 | CN(Cc1ncc(Cl)cc1Cl)C(=O)c1c(C(F)F)nn(C)c1F [Example 179] |  |  | 100% | 70% | 2.53 | 90% |  |  | 
12 | Cn1nc(C(F)F)c(C(=O)N(Cc2ncc(Cl)cc2Cl)C2CCCC2)c1Cl [Example 184] |  |  |  |  | 4.11 |  | 70% |  | 
13 | CCN(Cc1ccccc1[Si](C)(C)C)C(=O)c1c(C(F)F)nn(C)c1F [Example 99] | 4.09 | 95% | 95% |  |  | 95% | 100% |  | 
14 | Cn1nc(C(F)F)c(C(=O)N(Cc2c(Cl)cccc2C(F)(F)F)C2CCC2)c1F [Example 90] | 3.81 | 100% | 100% |  |  | 95% | 95% | 100% | 100%
15 | CC(C)c1ccccc1CN(C)C(=O)c1c(C(F)F)nn(C)c1F [Example 72] | 3.11 | 98% | 100% | 78% |  | 95% |  | 90% | 100%
16 | Cn1nc(C(F)F)c(C(=O)NC2(c3ccc(Cl)c(C(F)(F)F)c3)CC2)c1Cl [Example 126] |  |  | 95% |  | 3.41 |  | 78% |  | 
17 | C#CCN(Cc1ccccc1[Si](C)(C)C)C(=O)c1c(C(F)F)nn(C)c1F [Example 101] | 3.93 |  | 80% |  |  | 70% | 90% |  | 
18 | CC(c1ncc(Cl)cc1Cl)N(C)C(=O)c1c(C(F)F)nn(C)c1F (centres unmarked) [Example 185] |  |  | 95% | 95% | 2.92 | 100% | 90% | 100% | 100%
19 | Cn1nc(C(F)F)c(C(=O)N(Cc2ccc(Cl)cc2Cl)C2CCC2)c1Cl [Example 30] | 4.39 |  | 100% | 90% |  |  |  |  | 
20 | CC(c1ccccc1Cl)N(C)C(=S)c1c(C(F)F)nn(C)c1F (racemic) [Example 18] | 3.44 | 90% | 100% | 95% |  | 95% |  |  | 
21 | CON(Cc1ncc(Cl)cc1Cl)C(=O)c1c(C(F)F)nn(C)c1F [Example 181] |  |  | 100% | 70% | 2.73 | 80% | 70% |  | 
22 | CC(C)c1ccccc1CNC(=O)c1c(C(F)F)nn(C)c1Cl [Example 79] | 3.19 |  | 95% | 94% |  |  |  |  | 
23 | Cn1nc(C(F)F)c(C(=O)NC(C)(C)c2ccc(Cl)cc2Cl)c1F [Example 39] | 4.39 | 95% | 95% | 90% |  | 70% |  |  | 
24 | CC(c1ccc(Oc2ccccc2)cc1)N(C)C(=O)c1c(C(F)F)nn(C)c1F (racemic) [Example 154] |  |  | 100% | 70% | 3.59 | 95% |  |  | 
25 | CC(C)c1ccccc1CNC(=O)c1c(C(F)F)nn(C)c1F [Example 74] | 3.02 | 95% | 100% | 80% |  | 95% |  |  | 
26 | C=CCN(Cc1ccccc1[Si](C)(C)C)C(=O)c1c(C(F)F)nn(C)c1F [Example 100] | 4.27 |  |  |  |  | 80% | 80% |  | 
27 | CC(c1cc(Cl)cc(Cl)c1)N(C)C(=O)c1c(C(F)F)nn(C)c1F (centres unmarked) [Example 117] |  | 95% | 100% | 70% | 3.46 | 100% | 70% |  | 
28 | CC(c1ncc(Cl)cc1Cl)N(C(=O)c1c(C(F)F)nn(C)c1F)C1CCCC1 (centres unmarked) [Example 187] |  |  | 90% | 80% | 4.44 |  |  |  | 
29 | CC(NC(=O)c1c(C(F)F)nn(C)c1F)c1cccc(Cl)c1Cl (racemic) [Example 29] | 3.13 |  | 100% |  |  | 94% |  | 88% | 
